# Laboratory results as given in ChEMBL document CHEMBL4732166, “Thiosemicarbazide binds with the dicopper center in the competitive inhibition of mushroom tyrosinase enzyme: Synthesis and molecular modeling of theophylline analogues” (Bioorg Med Chem Lett, 2021).
# Target: T1, Mushroom tyrosinase (Agaricus bisporus, UniProt O42713+Q00024+C7FF04+C7FF05)
# Assay: Competitive inhibition of mushroom tyrosinase using […] as substrate by Lineweaver-Burk plot analysis
# Details: not given
row,Compound,Ki
1,CCn1c(Oc2ccc(/C=N/NC(N)=S)cc2)nc2c1c(=O)n(C)c(=O)n2C,670 nM

# Target: T1, Mushroom tyrosinase
# Assay: Inhibition of mushroom tyrosinase using […] as substrate
# Details: not given
row,Compound,Ki
1,CCn1c(Oc2ccc(/C=N/NC(N)=S)cc2)nc2c1c(=O)n(C)c(=O)n2C,670 nM

# Target: Mushroom tyrosinase (Agaricus bisporus) (UniProt O42713+Q00024+C7FF04+C7FF05)
# Details: dose 50.0 µM
# Description: Inhibition of mushroom tyrosinase using PNP-G as substrate at 50 nM relative to control
row,Compound,inhibition
1,CCn1c(Oc2ccc(C3C(C#N)=C(N)Oc4[nH]c(=S)[nH]c(=O)c43)cc2)nc2c1c(=O)n(C)c(=O)n2C (stereo not drawn),32.7%
2,CCn1c(Oc2ccc(C=C(C#N)C#N)cc2)nc2c1c(=O)n(C)c(=O)n2C,> 40%
3,CCn1c(NN)nc2c1c(=O)n(C)c(=O)n2C,> 40%
4,CCn1c(Oc2ccc(/C=N\Nc3c(F)c(F)c(F)c(F)c3F)cc2)nc2c1c(=O)n(C)c(=O)n2C,> 40%
5,CCn1c(Oc2ccc(/C=N/N)cc2)nc2c1c(=O)n(C)c(=O)n2C,> 40%
6,CCn1c(Oc2ccc(-c3nc(-c4ccccc4)c(-c4ccccc4)[nH]3)cc2)nc2c1c(=O)n(C)c(=O)n2C,> 40%
7,CCn1c(Oc2ccc(/C=N/NC(N)=S)cc2)nc2c1c(=O)n(C)c(=O)n2C,> 40%
8,CCn1c(Oc2ccc(C=C3C(=O)NC(=S)NC3=O)cc2)nc2c1c(=O)n(C)c(=O)n2C,30.2%
9,CCn1c(Oc2ccc(/C=N/N=C3/C(=O)Nc4ccccc43)cc2)nc2c1c(=O)n(C)c(=O)n2C,> 40%
10,CCn1c(Oc2ccc(-c3nnc(NC(C)=O)s3)cc2)nc2c1c(=O)n(C)c(=O)n2C,33.6%
11,CCn1c(Oc2ccc(/C=N/Nc3ccccn3)cc2)nc2c1c(=O)n(C)c(=O)n2C,> 40%
12,CCn1c(Oc2ccc(C=O)cc2)nc2c1c(=O)n(C)c(=O)n2C,29.5%
13,CCn1c(Oc2ccc(/C=N/N=C3/NC(=O)CS3)cc2)nc2c1c(=O)n(C)c(=O)n2C,29.4%
14,CCn1c(Oc2ccc(C3C4=C(CC(C)(C)CC4=O)NC4=C3C(=O)CC(C)(C)C4)cc2)nc2c1c(=O)n(C)c(=O)n2C,> 40%
15,CCn1c(Oc2ccc(/C=N\NC(=O)c3cccnc3)cc2)nc2c1c(=O)n(C)c(=O)n2C,40.3%
16,CCn1c(N/N=C/c2nc3ccccc3[nH]2)nc2c1c(=O)n(C)c(=O)n2C,27%
